Source: the supplement of paper PMC11061612

Experiments:
[1] = compound: C1CC(C1)(C(=O)[O-])C(=O)[O-].N.N.[Pt+2] [Carboplatin]; details: max 10 µM
How it was run: (§1)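 Viability was measured with CellTiter-Glo 2.0 luminescence after 72 hours of dosing at a final DMSO of typically 0.2%, and scaled between blank-well and DMSO-well means. Beforehand, cancer cell lines sat 24 hours at 37°C and 5% CO2 in 1536-well plates in 7.5 μl DMEM/F12 or RPMI with 10% FBS. A non-linear mixed effects model fitted two-parameter logistic curves to the dose responses. The single-agent IC50 comes from these fits.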

[2] = compound: C1CN(CCC1(C(=O)N[C@@H](CCO)C2=CC=C(C=C2)Cl)N)C3=NC=NC4=C3C=CN4 [AZD5363]; details: max 10 µM
How it was run: as §1

[3] = compound: C=CCn1c(=O)c2cnc(Nc3ccc(N4CCN(C)CC4)cc3)nc2n1-c1cccc(C(C)(C)O)n1 [AZD1775]; details: max 3 µM
How it was run: as §1

[4] = compound: CC(=O)Nc1cccc(-n2c(=O)n(C3CC3)c(=O)c3c(Nc4ccc(I)cc4F)n(C)c(=O)c(C)c32)c1 [Trametinib]; details: max 1 µM
How it was run: as §1

[5] = compound: CC(=O)O[C@H]1C(=O)[C@@]2(C)[C@H]([C@H](OC(=O)c3ccccc3)[C@]3(O)C[C@H](OC(=O)[C@H](O)[C@@H](NC(=O)c4ccccc4)c4ccccc4)C(C)=C1C3(C)C)[C@]1(OC(C)=O)CO[C@@H]1C[C@@H]2O [Paclitaxel]; details: max 3 µM
How it was run: as §1

[6] = compound: CC(=O)c1c(C)c2cnc(Nc3ccc(N4CCNCC4)cn3)nc2n(C2CCCC2)c1=O [Palbociclib]; details: max 10 µM
How it was run: as §1

[7] = compound: CC(C)n1c(=O)n(C)c2cnc3cc(F)c(-c4ccc(OCCCN5CCCCC5)nc4)cc3c21 [AZD1390]; details: max 0.3 µM
How it was run: as §1

[8] = compound: CC1(C)CCC(CN2CCN(c3ccc(C(=O)NS(=O)(=O)c4ccc(NCC5CCOCC5)c([N+](=O)[O-])c4)c(Oc4cnc5[nH]ccc5c4)c3)CC2)=C(c2ccc(Cl)cc2)C1 [Venetoclax]; details: max 1 µM
How it was run: as §1

[9] = compound: CC1=C(C(=CC=C1)Cl)NC(=O)C2=CN=C(S2)NC3=CC(=NC(=N3)C)N4CCN(CC4)CCO [Dasatinib]; details: max 2 µM
How it was run: as §1

[10] = compound: CC1=CN2[C@@H](C1)C=NC3=CC(=C(C=C3C2=O)OC)OCCCCCOC4=C(C=C5C(=C4)N=C[C@@H]6CC(=CN6C5=O)C)OC [SG3199]; details: max 0.001 µM
How it was run: as §1

[11] = compound: CCN(CCO)CCCOc1ccc2c(Nc3cc(CC(=O)Nc4cccc(F)c4)[nH]n3)ncnc2c1 [AZD2811]; details: max 1 µM
How it was run: as §1

[12] = compound: CCc1c2c(nc3ccc(O)cc13)-c1cc3c(c(=O)n1C2)COC(=O)[C@]3(O)CC [SN-38]; details: max 0.3 µM
How it was run: as §1

[13] = compound: CN(C)CCCOc1ccc(-c2ccc3ncc4c(c3c2)n(C2CCOCC2)c(=O)n4C)cn1 [AZD0156]; details: max 3 µM
How it was run: as §1

[14] = compound: CN(CC[C@H](CSC1=CC=CC=C1)NC2=C(C=C(C=C2)S(=O)(=O)NC(=O)C3=CC=C(C=C3)N4CCC(CC4)[C@H](C5=CC=CC=C5C6=CC=C(C=C6)Cl)O)S(=O)(=O)C(F)(F)F)CCO [AZD4320]; details: max 1 µM
How it was run: as §1

[15] = compound: COc1cc(Nc2ncc3c(n2)-c2ccc(Cl)cc2C(c2c(F)cccc2OC)=NC3)ccc1C(=O)O [Alisertib]; details: max 10 µM
How it was run: as §1

[16] = compound: COc1cc([C@@H]2c3cc4c(cc3[C@@H](O[C@@H]3O[C@@H]5CO[C@@H](C)O[C@H]5[C@H](O)[C@H]3O)[C@H]3COC(=O)[C@H]23)OCO4)cc(OC)c1O [Etoposide]; details: max 10 µM
How it was run: as §1

[17] = compound: COc1cc2ncnc(Nc3ccc(F)c(Cl)c3)c2cc1OCCCN1CCOCC1 [Gefitinib]; details: max 10 µM
How it was run: as §1

[18] = compound: COc1cccc(OCCCN)c1-c1cc(Nc2cnc(C#N)cn2)n[nH]1 [Prexasertib]; details: max 1 µM
How it was run: as §1

[19] = compound: COc1cccc2c1C(=O)c1c(O)c3c(c(O)c1C2=O)C[C@@](O)(C(=O)CO)C[C@@H]3O[C@H]1C[C@H](N)[C@H](O)[C@H](C)O1 [Doxorubicin]; details: max 1 µM
How it was run: as §1

[20] = compound: COc1nnc2ccc(N3CCC(c4ccc(OCCN5CCN(C)C(=O)[C@H]5C)cc4)CC3)nn12 [AZD5153]; details: max 1 µM
How it was run: as §1

[21] = compound: CS(=O)(=O)CCNCc1ccc(-c2ccc3ncnc(Nc4ccc(OCc5cccc(F)c5)c(Cl)c4)c3c2)o1 [Lapatinib]; details: max 10 µM
How it was run: as §1

[22] = compound: C[C@@H](Nc1cc(F)cc(F)c1)c1cc(C(=O)N(C)C)cc2c(=O)cc(N3CCOCC3)oc12 [AZD8186]; details: max 10 µM
How it was run: as §1

[23] = compound: C[C@@H](Oc1cc(-c2cnn(C3CCNCC3)c2)cnc1N)c1c(Cl)ccc(F)c1Cl [Crizotinib]; details: max 10 µM
How it was run: as §1

[24] = compound: C[C@@H](c1ccc2nccn2c1)n1nnc2ncc(-c3cnn(C)c3)nc21 [Savolitinib]; details: max 1 µM
How it was run: as §1

[25] = compound: C[C@@H]1COCCN1C2=NC(=NC(=C2)C3(CC3)[S@](=N)(=O)C)C4=C5C=CNC5=NC=C4 [AZD6738]; details: max 10 µM
How it was run: as §1

[26] = compound: Cc1c2c(nn1C)CSCc1cc(n(C)n1)CSc1cc(c3ccccc3c1)OCCCc1c(C(=O)O)n(C)c3c-2c(Cl)ccc13 [AZD5991]; details: max 1 µM
How it was run: as §1

[27] = compound: Cc1cc2ncnn2cc1Nc1ncc2c(n1)n(C1CCOCC1)c(=O)n2C [AZD7648]; details: max 10 µM
How it was run: as §1

[28] = compound: Cc1nc(-c2cn3c(n2)-c2ccc(-c4cnn(C(C)(C)C(N)=O)c4)cc2OCC3)n(C(C)C)n1 [Taselisib]; details: max 10 µM
How it was run: as §1

[29] = compound: Cn1cnc2c(F)c(Nc3ccc(Br)cc3Cl)c(C(=O)NOCCO)cc21 [Selumetinib]; details: max 10 µM
How it was run: as §1

[30] = compound: N#Cc1cnc(Nc2cc(NC[C@H]3CNCCO3)c(C(F)(F)F)cn2)cn1 [SRA737]; details: max 10 µM
How it was run: as §1

[31] = compound: NC1(c2ccc(-c3nc4ccn5c(=O)[nH]nc5c4cc3-c3ccccc3)cc2)CCC1 [MK-2206]; details: max 10 µM
How it was run: as §1

[32] = compound: Nc1ccn([C@@H]2O[C@H](CO)[C@@H](O)C2(F)F)c(=O)n1 [Gemcitabine]; details: max 0.3 µM
How it was run: as §1

[33] = compound: O=C(Nc1ccc2[nH]nc(-c3ccncc3)c2c1)[C@@H]1CCN(CC(=O)N2CCN(c3ccc(-c4ncccn4)cc3)CC2)C1; details: max 5 µM
How it was run: as §1

[34] = compound: O=C(c1cc(Cc2n[nH]c(=O)c3ccccc23)ccc1F)N1CCN(C(=O)C2CC2)CC1 [Olaparib]; details: max 10 µM
How it was run: as §1

[35] = compound: O=c1[nH]cc(F)c(=O)[nH]1 [5-Fluorouracil]; details: max 20 µM
How it was run: as §1

Cell Line	IC50, cell viability 72 h [1] [nM]	IC50, cell viability 72 h [2] [nM]	IC50, cell viability 72 h [3] [nM]	IC50, cell viability 72 h [4] [nM]	IC50, cell viability 72 h [5] [nM]	IC50, cell viability 72 h [6] [nM]	IC50, cell viability 72 h [7] [nM]	IC50, cell viability 72 h [8] [nM]	IC50, cell viability 72 h [9] [nM]	IC50, cell viability 72 h [10] [nM]	IC50, cell viability 72 h [11] [nM]	IC50, cell viability 72 h [12] [nM]	IC50, cell viability 72 h [13] [nM]	IC50, cell viability 72 h [14] [nM]	IC50, cell viability 72 h [15] [nM]	IC50, cell viability 72 h [16] [nM]	IC50, cell viability 72 h [17] [nM]	IC50, cell viability 72 h [18] [nM]	IC50, cell viability 72 h [19] [nM]	IC50, cell viability 72 h [20] [nM]	IC50, cell viability 72 h [21] [nM]	IC50, cell viability 72 h [22] [nM]	IC50, cell viability 72 h [23] [nM]	IC50, cell viability 72 h [24] [nM]	IC50, cell viability 72 h [25] [nM]	IC50, cell viability 72 h [26] [nM]	IC50, cell viability 72 h [27] [nM]	IC50, cell viability 72 h [28] [nM]	IC50, cell viability 72 h [29] [nM]	IC50, cell viability 72 h [30] [nM]	IC50, cell viability 72 h [31] [nM]	IC50, cell viability 72 h [32] [nM]	IC50, cell viability 72 h [33] [nM]	IC50, cell viability 72 h [34] [nM]	IC50, cell viability 72 h [35] [nM]
CaR-1 (Colorectal Carcinoma)	> 10000	> 10000	> 3000	> 1000	171	> 10000	> 300	> 1000	> 2000	> 1	> 1000	28.2	> 3000	> 1000	> 10000	> 10000	> 10000	279	957	> 1000	> 10000	> 10000	> 10000	> 1000	> 10000	> 1000	> 10000	6550	> 10000	> 10000	> 10000	228	> 5000	> 10000	> 20000
Calu-3 (Lung Adenocarcinoma)	> 10000	> 10000	2890	> 1000	> 3000	> 10000	> 300	> 1000	> 2000	> 1	> 1000	> 300	> 3000	> 1000	> 10000	5550	3730	> 1000	> 1000	337	1780	> 10000	> 10000	> 1000	> 10000	> 1000	> 10000	2790	> 10000	> 10000	> 10000	> 300	> 5000	> 10000	> 20000
